The values below are quoted from earlier work in PMC10386743, “Application of Ligand- and Structure-Based Prediction Models for the Design of Alkylhydrazide-Based HDAC3 Inhibitors as Novel Anti-Cancer Compounds” (Pharmaceuticals, 2023).

Bounds are passed on as bounds.

The series relates to HDAC3. The conditions noted are these: for pIC50 HDAC3 (HDAC3 experimental pIC50): newly designed compounds; for activity on HDAC3 (in words): experimentally determined.

On to `CCCNNC(=O)c1cnc(NCc2ccc(Cl)cc2)nc1` [Compound 77], for which the “pIC50 HDAC3 (HDAC3 experimental pIC50)” value was 7.43.

For `CCCNNC(=O)c1cnc(NCc2cccc3ccccc23)nc1` [Compound 75], the “pIC50 HDAC3 (HDAC3 experimental pIC50)” value was 7.09.

With `CCCNNC(=O)c1cnc(N2CCN(Cc3c[nH]c4ccccc34)CC2)nc1` [Compound 85], the “pIC50 HDAC3 (HDAC3 experimental pIC50)” value is listed as 7.52.

As for `CCCCCCNNC(=O)c1ccc(C)c(NCc2ccccc2)c1` [Compound 71], the “activity on HDAC3 (in words)” value is “did not show significant activity”. The “HDAC3 inhibition @1 µM” value (1 µM) is 9%@1 µM. Further, the “HDAC3 inhibition @10uM” value (10uM) is recorded as 42%.

With `CCCNNC(=O)c1ccc(CNC(C)=O)cc1` [Compound 68], the “activity on HDAC3 (in words)” value is given as “moderate activity” and the “pIC50 HDAC3 (HDAC3 experimental pIC50)” value was 5.80.

With `CCCNNC(=O)c1cnc(N2CCN(C)CC2)nc1` [Compound 79], the “pIC50 HDAC3 (HDAC3 experimental pIC50)” value was 6.92.

On to `CCCCCCNNC(=O)c1cnc(NCCc2ccccc2)nc1` [Compound 82], for which the “pIC50 HDAC3 (HDAC3 experimental pIC50)” value is recorded as under 5.00.

Consider `CCCCCCNNC(=O)c1cnc(NCc2cccc3ccccc23)nc1` [Compound 81], for which the “pIC50 HDAC3 (HDAC3 experimental pIC50)” value is listed as under 5.00.

With `CCCCCCNNC(=O)c1cnc(NCc2ccc(CNC(C)=O)cc2)nc1` [Compound 84], the “pIC50 HDAC3 (HDAC3 experimental pIC50)” value is under 5.00.

Consider `CCCCCCNNC(=O)c1cnc(N2CCN(Cc3cn(C)c4ccccc34)CC2)nc1` [Compound 87], for which the “pIC50 HDAC3 (HDAC3 experimental pIC50)” value is 6.52.

Turning to `CCCNNC(=O)c1cnc(NCc2ccc(CNC(C)=O)cc2)nc1` [Compound 80], the “pIC50 HDAC3 (HDAC3 experimental pIC50)” value is recorded as 6.96.

Regarding `CCCNNC(=O)c1cnc(NCc2ccccc2)nc1` [Compound 72], the “pIC50 HDAC3 (HDAC3 experimental pIC50)” value is reported as 7.37.

For `CCCCCCNNC(=O)c1ccc(-c2ccc(CNC(C)=O)cc2)cc1` [Compound 67], the “pIC50 HDAC3 (HDAC3 experimental pIC50)” value is under 5.00.

With `CCCCCNNC(=O)c1ccc(-c2ccc(CNC(C)=O)cc2)cc1` [Compound 66], the “pIC50 HDAC3 (HDAC3 experimental pIC50)” value is 5.82.

In the case of `CCCCCCNNC(=O)c1cccc(NCc2ccccc2)c1` [Compound 70], the “activity on HDAC3 (in words)” value is on record as “did not show significant activity” and the “pIC50 HDAC3 (HDAC3 experimental pIC50)” value is reported as under 5.00.

Regarding `CCCCNNC(=O)c1ccc(-c2ccc(CNC(C)=O)cc2)cc1` [Compound 65], the “pIC50 HDAC3 (HDAC3 experimental pIC50)” value is listed as 6.46.
